The target in this experiment is T1, KCNQ2/3 channels (Homo sapiens, UniProt O43525+O43526).
T1 construct: expressed in transfected cells
As to the kind of experiment: Fluorescence assay using a voltage sensitive dye (fluorimetry). It is filed as cell-based. Particulars: CHO-K1 cells expressing KCNQ2/3; for Emax: CHO-K1, plateau effect relative to saturated retigabine (50 μM) = 100%, negative values = antagonistic, read-out: Fluorimetry % efficacy (retigabine = 100%); for EC50: IC50 where % efficacy is negative, read-out: Fluorimetry EC50/IC50.

T1 sequence (O43526 whole entry): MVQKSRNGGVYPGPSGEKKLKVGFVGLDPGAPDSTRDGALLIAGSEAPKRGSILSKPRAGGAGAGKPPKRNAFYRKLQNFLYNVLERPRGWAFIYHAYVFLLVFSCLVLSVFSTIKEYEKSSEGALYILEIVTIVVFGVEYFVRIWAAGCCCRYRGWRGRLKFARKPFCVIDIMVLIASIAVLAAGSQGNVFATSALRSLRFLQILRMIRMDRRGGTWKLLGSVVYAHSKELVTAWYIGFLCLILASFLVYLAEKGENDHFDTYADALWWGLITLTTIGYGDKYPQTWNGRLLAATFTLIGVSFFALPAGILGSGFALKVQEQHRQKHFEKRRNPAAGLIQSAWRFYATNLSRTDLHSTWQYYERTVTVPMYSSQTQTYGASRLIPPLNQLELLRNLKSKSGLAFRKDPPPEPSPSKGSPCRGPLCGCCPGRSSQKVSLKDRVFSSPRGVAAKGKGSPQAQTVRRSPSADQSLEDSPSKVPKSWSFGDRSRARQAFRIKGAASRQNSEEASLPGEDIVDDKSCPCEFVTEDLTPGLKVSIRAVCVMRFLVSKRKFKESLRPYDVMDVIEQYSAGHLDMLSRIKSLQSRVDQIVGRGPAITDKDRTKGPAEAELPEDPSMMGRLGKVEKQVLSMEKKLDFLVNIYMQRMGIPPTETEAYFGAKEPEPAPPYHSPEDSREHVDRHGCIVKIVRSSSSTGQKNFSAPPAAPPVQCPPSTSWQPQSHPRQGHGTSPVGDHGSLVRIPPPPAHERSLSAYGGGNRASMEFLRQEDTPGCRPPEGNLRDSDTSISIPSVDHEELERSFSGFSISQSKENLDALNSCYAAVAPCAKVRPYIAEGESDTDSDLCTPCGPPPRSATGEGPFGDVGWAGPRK
T1 sequence (O43525 whole entry): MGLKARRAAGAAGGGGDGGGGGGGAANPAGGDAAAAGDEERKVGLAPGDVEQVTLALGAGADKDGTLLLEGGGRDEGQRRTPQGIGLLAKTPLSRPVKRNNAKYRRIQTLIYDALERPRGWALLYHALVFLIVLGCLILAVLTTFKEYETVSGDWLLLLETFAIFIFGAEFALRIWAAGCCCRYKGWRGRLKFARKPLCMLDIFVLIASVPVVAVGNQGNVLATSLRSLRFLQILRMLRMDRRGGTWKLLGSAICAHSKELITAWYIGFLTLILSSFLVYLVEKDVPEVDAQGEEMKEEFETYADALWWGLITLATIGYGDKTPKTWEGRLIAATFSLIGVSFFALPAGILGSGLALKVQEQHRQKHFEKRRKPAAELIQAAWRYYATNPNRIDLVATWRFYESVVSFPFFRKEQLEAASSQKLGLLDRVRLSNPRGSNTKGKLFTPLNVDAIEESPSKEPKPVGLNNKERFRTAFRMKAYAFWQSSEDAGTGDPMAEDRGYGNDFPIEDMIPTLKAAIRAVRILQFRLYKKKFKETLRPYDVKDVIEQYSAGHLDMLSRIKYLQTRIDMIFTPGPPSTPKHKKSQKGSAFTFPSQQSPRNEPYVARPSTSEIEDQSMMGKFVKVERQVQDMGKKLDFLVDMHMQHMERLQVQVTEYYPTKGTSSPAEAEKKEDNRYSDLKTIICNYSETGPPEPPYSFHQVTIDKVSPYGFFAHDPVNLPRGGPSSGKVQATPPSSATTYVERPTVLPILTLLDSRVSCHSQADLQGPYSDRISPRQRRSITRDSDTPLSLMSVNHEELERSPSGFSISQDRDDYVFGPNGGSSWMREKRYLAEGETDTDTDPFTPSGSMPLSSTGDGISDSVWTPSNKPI

Regarding `COc1nc(N2CCOC[C@H]2C)cc(C)c1C(=O)NCc1cc(F)cc(F)c1` [Example 234, N-[(3,5-Difluoro-phenyl)-methyl]-2-methoxy-4-methyl-6-[(3R)-3-methyl-morpholin-4-yl]-pyridine-3-carboxylic acid amide], the Emax was determined as 195% and the EC50 was 124 nM.
The like results for `CCSc1nc(N2CCOC[C@H]2C)cc(C)c1C(=O)NCCCC(F)(F)F` [Example 235, 2-Ethylsulfanyl-4-methyl-6-[(3R)-3-methyl-morpholin-4-yl]-N-(4,4,4-trifluoro-butyl)-pyridine-3-carboxylic acid amide] were, in that order, 235% and 196 nM.
For `COc1nc(N2CCOC[C@H]2C)cc(C)c1C(=O)NCCCC(F)(F)F` [Example 236, 2-Methoxy-4-methyl-6-[(3R)-3-methyl-morpholin-4-yl]-N-(4,4,4-trifluoro-butyl)-pyridine-3-carboxylic acid amide] the same measures were 227% and 469 nM.
For `CCSc1nc(N2CCOC[C@H]2C)cc(C)c1C(=O)NCc1ccc(C(F)(F)F)cc1` [Example 237, 2-Ethylsulfanyl-4-methyl-6-[(3R)-3-methyl-morpholin-4-yl]-N-[[4-(trifluoromethyl)-phenyl]-methyl]-pyridine-3-carboxylic acid amide] the same measures were 148% and 56 nM.
Consider `COc1nc(N2CCOC[C@H]2C)cc(C)c1C(=O)NCc1ccc(C(F)(F)F)cc1` [Example 238, 2-Methoxy-4-methyl-6-[(3R)-3-methyl-morpholin-4-yl]-N-[[4-(trifluoromethyl)-phenyl]-methyl]pyridine-3-carboxylic acid amide], for which the Emax stood at 164% and the EC50 stood at 102 nM.
On to `CCSc1nc(N2CC(COC)C2)cc(C)c1C(=O)NCc1cccc(F)c1` [Example 239, 2-Ethylsulfanyl-N-[(3-fluorophenyl)-methyl]-6-[3-(methoxymethyl)-azetidin-1-yl]-4-methyl-pyridine-3-carboxylic acid amide], for which the Emax worked out at 125% and the EC50 was 1820 nM.
For `CCSc1nc(N2CC(C)OCC2C)cc(C)c1C(=O)NCc1cccc(F)c1` (stereo not shown) [Example 240, 6-(2,5-Dimethyl-morpholin-4-yl)-2-ethylsulfanyl-N-[(3-fluorophenyl)-methyl]-4-methyl-pyridine-3-carboxylic acid amide] the same measures were 174% and 394 nM.
The like results for `Cc1cc(N2CCOCC2)nc(N(C)C)c1C(=O)NCc1ccc(C(F)(F)F)cc1` [Example 241, 2-Dimethylamino-4-methyl-6-morpholin-4-yl-N-[[4-(trifluoromethyl)-phenyl]-methyl]-pyridine-3-carboxylic acid amide] were, in that order, 160% and 558 nM.
Consider `Cc1cc(N2CCOCC2)nc(N(C)C)c1C(=O)NCc1cc(F)cc(F)c1` [Example 242, N-[(3,5-Difluoro-phenyl)-methyl]-2-dimethylamino-4-methyl-6-morpholin-4-yl-pyridine-3-carboxylic acid amide], for which the Emax turned out to be 214% and the EC50 turned out to be 366 nM.
As to `CCSc1nc(N2CCn3cc(C(F)(F)F)nc3C2)cc(C)c1C(=O)NCc1cccc(F)c1` [Example 243, 2-Ethylsulfanyl-N-[(3-fluorophenyl)-methyl]-4-methyl-6-[2-(trifluoromethyl)-5,6,7,8-tetrahydro-imidazo[1,2-a]pyrazin-7-yl]-pyridine-3-carboxylic acid amide], the Emax was determined as 105% and the EC50 amounted to 1280 nM.
For `Cc1cc(N2CCOCC2)nc(N(C)C)c1C(=O)NCCCC(C)(C)C` [Example 245, 2-Dimethylamino-N-(4,4-dimethyl-pentyl)-4-methyl-6-morpholin-4-yl-pyridine-3-carboxylic acid amide] the same measures were 225% and 345 nM.

Values taken from US9168259B2 (GRÜNENTHAL GMBH, priority 2010, dated 2015).
